# Measurements: patent EP1935986B1, “Luminogenic and fluorogenic compounds and methods to detect molecules or conditions” (priority 2005, dated 2006)
# What was measured:
# [1] = test system: thermostable luciferase (Luc 146-1H2); test: Thermostable luciferase reaction with luciferin derivatives: light readings; format: biochemical
# Method: (§1) This stock was used to produce enzyme stock solution having of 200 µg/ml enzyme solution in 1 mg/ml BSA, 200 mM HEPES buffer, pH 8.0, 20 mM MgCl2.
# (§2) Solutions were made using a 1 M DTT solution, pH adjusted to 8.0, a 20 mM Coenzyme A solution in water (both described in examples above), a 100 mM ATP solution and water to create the following solutions: Sol'A, 100 µM ATP; Sol'B, 100 µM ATP, 4 mM Coenzyme A; Sol'n C, 100 µM ATP, 400 mM DTT, and; Sol'n D, 100 µM ATP, 4 mM Coenzyme A and 400 mM DTT.
# The following reactions were prepared (Table 47) Table 47
# (§3) After assembly, the reactions were initiated by addition of 25 µl of the thermostable luciferase stock solution above and mixing the tube contents. A 50 µl sample was immediately removed and placed in a luminometer tube and the light read and the tube then replaced in a tube rack at room temperature. While the light reading was being taken, a 5 µl sample of the remaining reaction (which was kept at room temperature) was diluted into 495 µl of 50 mM BisTris, pH 6.5, 1 mg/ml BSA, 1 mM EDTA prechilled to 4°C and the tube mixed and placed on ice. The light produced by the samples in the luminometer tubes were re-read at 20, 40, 60, 90 and 120 minutes post enzyme addition. Additional 5 µl samples were taken and diluted as above at 60 and 120 minutes post enzyme addition. Once all these readings and samples were taken, 50 µl of the diluted samples was mixed with 50 µl of Steady Glo in luminometer tubes, the tubes incubated 10 minutes on ice then the light produced was read on a Turner TD 20/20 luminometer.
# [2] = test system: thermostable luciferase (Luc 146-1H2); test: Residual thermostable luciferase activity after reaction with luciferin derivatives (Steady Glo); format: biochemical
# Method: as §1, §2, §3
smiles,measurement,setting,value
O=C(O)[C@H]1CSC(c2nc3ccc(OCc4ccccc4)cc3s2)=N1 [L'in-BE],light readings from the reaction samples,"[1]; substrate 6.25 (L'in-BE: 6.26), + Co A & DTT, Time 0 min",436.9
same,light readings from the reaction samples,"[1]; substrate 6.25 (L'in-BE: 6.26), + Co A & DTT, Time 20 min",80.41
same,light readings from the reaction samples,"[1]; substrate 6.25 (L'in-BE: 6.26), + Co A & DTT, Time 40 min",38.47
same,light readings from the reaction samples,"[1]; substrate 6.25 (L'in-BE: 6.26), + Co A & DTT, Time 60 min",22.83
same,light readings from the reaction samples,"[1]; substrate 6.25 (L'in-BE: 6.26), + Co A & DTT, Time 90 min",16.08
same,light readings from the reaction samples,"[1]; substrate 6.25 (L'in-BE: 6.26), + Co A & DTT, Time 120 min",12.01
same,light readings from the reaction samples,"[1]; substrate 6.25 (L'in-BE: 6.26), + Co A, Time 0 min",2575
same,light readings from the reaction samples,"[1]; substrate 6.25 (L'in-BE: 6.26), + Co A, Time 20 min",207.1
same,light readings from the reaction samples,"[1]; substrate 6.25 (L'in-BE: 6.26), + Co A, Time 40 min",83.73
same,light readings from the reaction samples,"[1]; substrate 6.25 (L'in-BE: 6.26), + Co A, Time 60 min",45.54
same,light readings from the reaction samples,"[1]; substrate 6.25 (L'in-BE: 6.26), + Co A, Time 90 min",24
same,light readings from the reaction samples,"[1]; substrate 6.25 (L'in-BE: 6.26), + Co A, Time 120 min",14.42
same,light readings from the reaction samples,"[1]; substrate 6.25 (L'in-BE: 6.26), + DTT, Time 0 min",455.6
same,light readings from the reaction samples,"[1]; substrate 6.25 (L'in-BE: 6.26), + DTT, Time 20 min",71.9
same,light readings from the reaction samples,"[1]; substrate 6.25 (L'in-BE: 6.26), + DTT, Time 40 min",33.73
same,light readings from the reaction samples,"[1]; substrate 6.25 (L'in-BE: 6.26), + DTT, Time 60 min",21.49
same,light readings from the reaction samples,"[1]; substrate 6.25 (L'in-BE: 6.26), + DTT, Time 90 min",13.67
same,light readings from the reaction samples,"[1]; substrate 6.25 (L'in-BE: 6.26), + DTT, Time 120 min",9.847
same,light readings from the reaction samples,"[1]; substrate 6.25 (L'in-BE: 6.26), Alone, Time 0 min",785.5
same,light readings from the reaction samples,"[1]; substrate 6.25 (L'in-BE: 6.26), Alone, Time 20 min",62.64
same,light readings from the reaction samples,"[1]; substrate 6.25 (L'in-BE: 6.26), Alone, Time 40 min",22.11
same,light readings from the reaction samples,"[1]; substrate 6.25 (L'in-BE: 6.26), Alone, Time 60 min",11.22
same,light readings from the reaction samples,"[1]; substrate 6.25 (L'in-BE: 6.26), Alone, Time 90 min",5.189
same,light readings from the reaction samples,"[1]; substrate 6.25 (L'in-BE: 6.26), Alone, Time 120 min",2.995
same,light readings from the reaction samples,"[1]; substrate 25, + Co A & DTT, Time 0 min",402
same,light readings from the reaction samples,"[1]; substrate 25, + Co A & DTT, Time 20 min",85.37
same,light readings from the reaction samples,"[1]; substrate 25, + Co A & DTT, Time 40 min",45.87
same,light readings from the reaction samples,"[1]; substrate 25, + Co A & DTT, Time 60 min",27.94
same,light readings from the reaction samples,"[1]; substrate 25, + Co A & DTT, Time 90 min",18.94
same,light readings from the reaction samples,"[1]; substrate 25, + Co A & DTT, Time 120 min",13.13
same,light readings from the reaction samples,"[1]; substrate 25, + Co A, Time 0 min",972.4
same,light readings from the reaction samples,"[1]; substrate 25, + Co A, Time 20 min",127.4
same,light readings from the reaction samples,"[1]; substrate 25, + Co A, Time 40 min",58.9
same,light readings from the reaction samples,"[1]; substrate 25, + Co A, Time 60 min",31.96
same,light readings from the reaction samples,"[1]; substrate 25, + Co A, Time 90 min",17.54
same,light readings from the reaction samples,"[1]; substrate 25, + Co A, Time 120 min",9.727
same,light readings from the reaction samples,"[1]; substrate 25, + DTT, Time 0 min",448.6
same,light readings from the reaction samples,"[1]; substrate 25, + DTT, Time 20 min",84.21
same,light readings from the reaction samples,"[1]; substrate 25, + DTT, Time 40 min",43.77
same,light readings from the reaction samples,"[1]; substrate 25, + DTT, Time 60 min",27.21
same,light readings from the reaction samples,"[1]; substrate 25, + DTT, Time 90 min",18.48
same,light readings from the reaction samples,"[1]; substrate 25, + DTT, Time 120 min",12.93
same,light readings from the reaction samples,"[1]; substrate 25, Alone, Time 0 min",623.2
same,light readings from the reaction samples,"[1]; substrate 25, Alone, Time 20 min",73.96
same,light readings from the reaction samples,"[1]; substrate 25, Alone, Time 40 min",28.76
same,light readings from the reaction samples,"[1]; substrate 25, Alone, Time 60 min",13.42
same,light readings from the reaction samples,"[1]; substrate 25, Alone, Time 90 min",5.528
same,light readings from the reaction samples,"[1]; substrate 25, Alone, Time 120 min",2.549
same,light readings from the reaction samples,"[1]; substrate 100, + Co A & DTT, Time 0 min",140.4
same,light readings from the reaction samples,"[1]; substrate 100, + Co A & DTT, Time 20 min",71.5
same,light readings from the reaction samples,"[1]; substrate 100, + Co A & DTT, Time 40 min",45.66
same,light readings from the reaction samples,"[1]; substrate 100, + Co A & DTT, Time 60 min",29.32
same,light readings from the reaction samples,"[1]; substrate 100, + Co A & DTT, Time 90 min",19.92
same,light readings from the reaction samples,"[1]; substrate 100, + Co A & DTT, Time 120 min",13.08
same,light readings from the reaction samples,"[1]; substrate 100, + Co A, Time 0 min",191.9
same,light readings from the reaction samples,"[1]; substrate 100, + Co A, Time 20 min",63.85
same,light readings from the reaction samples,"[1]; substrate 100, + Co A, Time 40 min",29.28
same,light readings from the reaction samples,"[1]; substrate 100, + Co A, Time 60 min",14.78
same,light readings from the reaction samples,"[1]; substrate 100, + Co A, Time 90 min",6.652
same,light readings from the reaction samples,"[1]; substrate 100, + Co A, Time 120 min",3.014
same,light readings from the reaction samples,"[1]; substrate 100, + DTT, Time 0 min",148.7
same,light readings from the reaction samples,"[1]; substrate 100, + DTT, Time 20 min",77.9
same,light readings from the reaction samples,"[1]; substrate 100, + DTT, Time 40 min",48.39
same,light readings from the reaction samples,"[1]; substrate 100, + DTT, Time 60 min",32.26
same,light readings from the reaction samples,"[1]; substrate 100, + DTT, Time 90 min",21.71
same,light readings from the reaction samples,"[1]; substrate 100, + DTT, Time 120 min",14.25
same,light readings from the reaction samples,"[1]; substrate 100, Alone, Time 0 min",160
same,light readings from the reaction samples,"[1]; substrate 100, Alone, Time 20 min",48.21
same,light readings from the reaction samples,"[1]; substrate 100, Alone, Time 40 min",19.25
same,light readings from the reaction samples,"[1]; substrate 100, Alone, Time 60 min",8.305
same,light readings from the reaction samples,"[1]; substrate 100, Alone, Time 90 min",2.843
same,light readings from the reaction samples,"[1]; substrate 100, Alone, Time 120 min",1.311
same,light values obtained upon addition of the diluted reaction samples into Steady Glo reagent,"[2]; Substrate 6.25, + Co A & DTT, Time Sample Taken 0 min",1943
same,light values obtained upon addition of the diluted reaction samples into Steady Glo reagent,"[2]; Substrate 6.25, + Co A & DTT, Time Sample Taken 60 min",1235
same,light values obtained upon addition of the diluted reaction samples into Steady Glo reagent,"[2]; Substrate 6.25, + Co A & DTT, Time Sample Taken 120 min",1163
same,light values obtained upon addition of the diluted reaction samples into Steady Glo reagent,"[2]; Substrate 6.25, + Co A, Time Sample Taken 0 min",1841
same,light values obtained upon addition of the diluted reaction samples into Steady Glo reagent,"[2]; Substrate 6.25, + Co A, Time Sample Taken 60 min",518.6
same,light values obtained upon addition of the diluted reaction samples into Steady Glo reagent,"[2]; Substrate 6.25, + Co A, Time Sample Taken 120 min",349.1
same,light values obtained upon addition of the diluted reaction samples into Steady Glo reagent,"[2]; Substrate 6.25, + DTT, Time Sample Taken 0 min",1860
same,light values obtained upon addition of the diluted reaction samples into Steady Glo reagent,"[2]; Substrate 6.25, + DTT, Time Sample Taken 60 min",1173
same,light values obtained upon addition of the diluted reaction samples into Steady Glo reagent,"[2]; Substrate 6.25, + DTT, Time Sample Taken 120 min",1067
same,light values obtained upon addition of the diluted reaction samples into Steady Glo reagent,"[2]; Substrate 6.25, Alone, Time Sample Taken 0 min",2057
same,light values obtained upon addition of the diluted reaction samples into Steady Glo reagent,"[2]; Substrate 6.25, Alone, Time Sample Taken 60 min",406.6
same,light values obtained upon addition of the diluted reaction samples into Steady Glo reagent,"[2]; Substrate 6.25, Alone, Time Sample Taken 120 min",267.7
same,light values obtained upon addition of the diluted reaction samples into Steady Glo reagent,"[2]; Substrate 25, + Co A & DTT, Time Sample Taken 0 min",1925
same,light values obtained upon addition of the diluted reaction samples into Steady Glo reagent,"[2]; Substrate 25, + Co A & DTT, Time Sample Taken 60 min",1102
same,light values obtained upon addition of the diluted reaction samples into Steady Glo reagent,"[2]; Substrate 25, + Co A & DTT, Time Sample Taken 120 min",836.3
same,light values obtained upon addition of the diluted reaction samples into Steady Glo reagent,"[2]; Substrate 25, + Co A, Time Sample Taken 0 min",1610
same,light values obtained upon addition of the diluted reaction samples into Steady Glo reagent,"[2]; Substrate 25, + Co A, Time Sample Taken 60 min",277.8
same,light values obtained upon addition of the diluted reaction samples into Steady Glo reagent,"[2]; Substrate 25, + Co A, Time Sample Taken 120 min",143.2
same,light values obtained upon addition of the diluted reaction samples into Steady Glo reagent,"[2]; Substrate 25, + DTT, Time Sample Taken 0 min",1675
same,light values obtained upon addition of the diluted reaction samples into Steady Glo reagent,"[2]; Substrate 25, + DTT, Time Sample Taken 60 min",910.2
same,light values obtained upon addition of the diluted reaction samples into Steady Glo reagent,"[2]; Substrate 25, + DTT, Time Sample Taken 120 min",738.9
same,light values obtained upon addition of the diluted reaction samples into Steady Glo reagent,"[2]; Substrate 25, Alone, Time Sample Taken 0 min",1309
same,light values obtained upon addition of the diluted reaction samples into Steady Glo reagent,"[2]; Substrate 25, Alone, Time Sample Taken 60 min",157.1
same,light values obtained upon addition of the diluted reaction samples into Steady Glo reagent,"[2]; Substrate 25, Alone, Time Sample Taken 120 min",72.57
same,light values obtained upon addition of the diluted reaction samples into Steady Glo reagent,"[2]; Substrate 100, + Co A & DTT, Time Sample Taken 0 min",1780
same,light values obtained upon addition of the diluted reaction samples into Steady Glo reagent,"[2]; Substrate 100, + Co A & DTT, Time Sample Taken 60 min",1016
same,light values obtained upon addition of the diluted reaction samples into Steady Glo reagent,"[2]; Substrate 100, + Co A & DTT, Time Sample Taken 120 min",778.7
same,light values obtained upon addition of the diluted reaction samples into Steady Glo reagent,"[2]; Substrate 100, + Co A, Time Sample Taken 0 min",1486
same,light values obtained upon addition of the diluted reaction samples into Steady Glo reagent,"[2]; Substrate 100, + Co A, Time Sample Taken 60 min",242.2
same,light values obtained upon addition of the diluted reaction samples into Steady Glo reagent,"[2]; Substrate 100, + Co A, Time Sample Taken 120 min",82.03
same,light values obtained upon addition of the diluted reaction samples into Steady Glo reagent,"[2]; Substrate 100, + DTT, Time Sample Taken 0 min",1762
same,light values obtained upon addition of the diluted reaction samples into Steady Glo reagent,"[2]; Substrate 100, + DTT, Time Sample Taken 60 min",952.1
same,light values obtained upon addition of the diluted reaction samples into Steady Glo reagent,"[2]; Substrate 100, + DTT, Time Sample Taken 120 min",691
same,light values obtained upon addition of the diluted reaction samples into Steady Glo reagent,"[2]; Substrate 100, Alone, Time Sample Taken 0 min",1245
same,light values obtained upon addition of the diluted reaction samples into Steady Glo reagent,"[2]; Substrate 100, Alone, Time Sample Taken 60 min",156.4
same,light values obtained upon addition of the diluted reaction samples into Steady Glo reagent,"[2]; Substrate 100, Alone, Time Sample Taken 120 min",61.75
